The target in one assay is RON (Homo sapiens, UniProt Q04912). Put plainly: Evaluation of inhibitory activity against RON (TR-FRET). The assay is classed as biochemical. The conditions noted are these: TR-FRET kinase assay, RON protein. The method, then:
In order to measure the inhibitory activity of each of the compounds of Examples against RON, the IC50 of each of the compounds was measured using a Time-Resolved Fluorescence Energy Transfer Chemistry (TR-FRET).
Specifically, the compound was prepared to a concentration of 1 mM with 100% DMSO and was diluted 10 times in a stepwise manner through 3-fold dilution. 2 ul of the compound diluted in a stepwise manner was added to a 96-well-plate containing 48 ul of a 1×kinase reaction buffer (50 mM HEPES (pH 7.4), 0.01% Tween-20, 5 mM DTT, 0.5 mM Na3VO4, 2 mM EGTA, 10 mM MgCl2).
The RON protein was diluted to a concentration of 49.3 nM with an RON storage buffer (50 mM Tris-HCl (pH 7.5), 150 mM NaCl, 0.5 mM EDTA, 0.02% Triton X-100), and then diluted again to a concentration of 0.4 nM with a 1×kinase reaction buffer. As a substrate cocktail, a RON-specific substrate mixture (40 uM ULight-labeled Poly GT, 100 nM ATP) at a concentration 2 times the final reaction concentration.
(§1) Thereafter, a 384-well-plate was prepared, and 2.5 μl of each of the diluted compounds of Examples was added to a corresponding well of experimental group wells, and 2.5 μl of a 4% DMSO solution was dispensed into high control wells and low control wells.
(§2) Thereafter, 2.5 μL of 0.4 nM RON was dispensed into the high control wells and the experimental group wells, and 2.5 μL of a 1× kinase reaction buffer was added to the low control wells, and the RON and the reaction buffer were centrifuged at room temperature for 40 seconds at 1000 RPM, and then incubated at room temperature for 20 to 30 minutes. Then, 5 uL of a substrate cocktail (2×) was dispensed into all wells, centrifuged at room temperature for 40 seconds at 1000 RPM, and then incubated at room temperature for 60 minutes. Thereafter, 5 uL of 30 mM EDTA was added to all wells to terminate the reaction, and then incubated again at room temperature for 5 minutes. Thereafter, 5 uL of a 4× phosphotyrosine antibody (Perkin Elmer) containing europium was added to all wells, and then incubated at room temperature for 60 minutes. After the incubation, the 384-well-plate was read with a Vison plate reader. At this time, the excitation wavelength was 340 nm, and the emission wavelength was 620 nm and 665 nm. The IC50 value of the compound of each Example was derived using the GraphPd Prism7 program.
In general terms: TR-FRET usually uses a lanthanide donor and a delayed reading to cut background.

Another assay addresses cMET (Homo sapiens, UniProt P08581). Put plainly: Evaluation of inhibitory activity against MET (TR-FRET). The assay is classed as biochemical. The conditions noted are these: TR-FRET kinase assay, cMET protein. The method, then:
In addition, in order to measure the enzyme activity inhibition for cMET, the evaluation was performed in the same manner as the enzyme activity inhibition measurement experiment for the RON.
Specifically, the compound was prepared to a concentration of 1 mM with 100% DMSO and was diluted 10 times in a stepwise manner through 3-fold dilution. 2 ul of the compound diluted in a stepwise manner was added to a 96-well-plate containing 48 ul of a 1× kinase reaction buffer (50 mM HEPES (pH 7.4), 0.05% BSA, 0.005% Tween-20, 1 mM DTT, 0.5 mM MnCl2, 20 mM MgCl2).
The cMET protein was diluted to a concentration of 263 nM with a cMET storage buffer (50 mM Tris-HCl (pH 7.5), 150 mM NaCl, 0.05% Brij35, 1 mM DTT, 10% Glycerol), and then diluted again to a concentration of 2 nM with a 1× kinase reaction buffer. As a substrate cocktail, a MET-specific substrate mixture (5 uM TK peptide, […]) at a concentration 2 times the final reaction concentration.
as §1
as §2, with “of 2” for “of 0.4”, “nM cMET” for “nM RON”, “of 90” for “of 30”, “The […]” for “The IC50”

As usually defined, the IC50 is the concentration that inhibits the measured activity by half. Lower therefore signals higher potency.

Bounds are passed on as bounds.

cMET, sequence (P08581 25-1390): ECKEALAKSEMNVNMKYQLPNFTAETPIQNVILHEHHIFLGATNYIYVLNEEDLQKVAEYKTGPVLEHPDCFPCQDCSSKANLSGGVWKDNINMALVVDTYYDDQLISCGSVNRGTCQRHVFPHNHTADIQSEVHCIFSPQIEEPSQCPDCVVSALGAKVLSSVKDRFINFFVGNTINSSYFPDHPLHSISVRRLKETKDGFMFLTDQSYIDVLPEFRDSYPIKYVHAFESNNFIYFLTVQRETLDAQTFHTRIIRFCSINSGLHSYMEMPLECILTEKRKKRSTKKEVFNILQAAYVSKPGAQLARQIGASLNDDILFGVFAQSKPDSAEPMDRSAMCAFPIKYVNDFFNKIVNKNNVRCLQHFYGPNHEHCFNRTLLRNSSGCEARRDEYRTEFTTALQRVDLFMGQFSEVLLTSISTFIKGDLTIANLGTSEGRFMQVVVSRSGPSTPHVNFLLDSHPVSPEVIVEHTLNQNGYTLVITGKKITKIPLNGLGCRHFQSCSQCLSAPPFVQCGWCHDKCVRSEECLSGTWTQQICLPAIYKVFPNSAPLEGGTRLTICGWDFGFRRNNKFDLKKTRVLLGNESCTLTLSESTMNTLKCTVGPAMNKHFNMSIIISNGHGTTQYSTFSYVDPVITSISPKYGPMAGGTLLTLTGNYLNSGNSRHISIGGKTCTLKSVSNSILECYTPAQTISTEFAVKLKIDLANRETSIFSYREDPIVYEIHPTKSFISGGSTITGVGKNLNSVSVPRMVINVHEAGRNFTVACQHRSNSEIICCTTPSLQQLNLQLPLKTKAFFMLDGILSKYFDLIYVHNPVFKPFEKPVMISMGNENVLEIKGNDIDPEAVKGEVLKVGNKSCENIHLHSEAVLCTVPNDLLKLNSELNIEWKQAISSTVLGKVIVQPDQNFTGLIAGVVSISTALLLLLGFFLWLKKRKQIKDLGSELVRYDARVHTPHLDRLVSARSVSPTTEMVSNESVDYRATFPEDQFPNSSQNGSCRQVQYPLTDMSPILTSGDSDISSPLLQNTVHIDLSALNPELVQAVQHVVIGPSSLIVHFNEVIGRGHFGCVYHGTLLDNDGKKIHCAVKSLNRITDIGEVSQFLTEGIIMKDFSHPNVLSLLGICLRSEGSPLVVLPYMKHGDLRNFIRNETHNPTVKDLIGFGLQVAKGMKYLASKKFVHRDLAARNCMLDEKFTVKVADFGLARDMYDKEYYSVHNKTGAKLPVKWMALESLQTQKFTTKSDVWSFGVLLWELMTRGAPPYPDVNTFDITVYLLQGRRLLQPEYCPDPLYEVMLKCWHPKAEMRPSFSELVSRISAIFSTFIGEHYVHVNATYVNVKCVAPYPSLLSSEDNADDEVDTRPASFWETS
RON, sequence (Q04912 25-1400, species assumed): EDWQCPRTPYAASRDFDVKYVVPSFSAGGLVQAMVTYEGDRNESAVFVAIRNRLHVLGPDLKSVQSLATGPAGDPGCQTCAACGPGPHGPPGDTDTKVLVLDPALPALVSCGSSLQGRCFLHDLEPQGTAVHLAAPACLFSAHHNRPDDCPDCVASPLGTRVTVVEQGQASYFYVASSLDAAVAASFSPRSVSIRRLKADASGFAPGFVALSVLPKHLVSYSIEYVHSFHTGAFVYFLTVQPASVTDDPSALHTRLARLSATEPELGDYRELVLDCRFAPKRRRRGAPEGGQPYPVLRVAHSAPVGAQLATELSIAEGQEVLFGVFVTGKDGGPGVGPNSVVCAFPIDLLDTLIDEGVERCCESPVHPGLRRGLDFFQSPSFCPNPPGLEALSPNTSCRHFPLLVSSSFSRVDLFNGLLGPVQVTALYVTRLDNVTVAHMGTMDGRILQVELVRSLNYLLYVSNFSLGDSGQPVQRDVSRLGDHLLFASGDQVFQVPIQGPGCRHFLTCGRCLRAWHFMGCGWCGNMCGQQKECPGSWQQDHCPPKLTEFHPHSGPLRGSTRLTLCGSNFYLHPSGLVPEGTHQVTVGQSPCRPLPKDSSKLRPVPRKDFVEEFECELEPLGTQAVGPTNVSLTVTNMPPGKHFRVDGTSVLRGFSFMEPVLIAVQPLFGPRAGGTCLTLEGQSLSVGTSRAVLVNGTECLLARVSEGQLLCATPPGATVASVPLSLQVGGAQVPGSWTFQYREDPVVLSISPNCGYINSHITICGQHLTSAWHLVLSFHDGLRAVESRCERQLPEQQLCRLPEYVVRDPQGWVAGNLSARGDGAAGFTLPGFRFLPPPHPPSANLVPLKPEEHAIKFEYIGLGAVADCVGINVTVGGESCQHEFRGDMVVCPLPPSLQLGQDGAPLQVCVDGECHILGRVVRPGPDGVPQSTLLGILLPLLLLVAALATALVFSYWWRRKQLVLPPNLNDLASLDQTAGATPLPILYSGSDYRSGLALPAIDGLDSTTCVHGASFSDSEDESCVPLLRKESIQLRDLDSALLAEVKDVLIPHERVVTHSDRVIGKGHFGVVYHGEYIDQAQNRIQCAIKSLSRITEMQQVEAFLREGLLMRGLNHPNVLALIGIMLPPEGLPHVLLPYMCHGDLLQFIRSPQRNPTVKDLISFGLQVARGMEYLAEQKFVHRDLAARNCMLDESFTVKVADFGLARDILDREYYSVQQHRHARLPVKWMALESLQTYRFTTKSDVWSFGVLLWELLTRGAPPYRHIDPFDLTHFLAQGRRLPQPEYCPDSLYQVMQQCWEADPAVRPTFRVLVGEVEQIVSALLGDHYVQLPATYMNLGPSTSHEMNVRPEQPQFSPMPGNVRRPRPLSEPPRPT

Take `CC(C)n1c(=O)[nH]c2nccc(Oc3ccc(NC(=O)c4cnn(-c5ccc(Cl)cn5)c4C(F)(F)F)cc3F)c21` [Example 11, 1-(5-chloropyridine-2-yl)-N-(3-fluoro-4-((1-isopropyl-2-oxo-2,3-dihydro-1H-imidazo[4,5-b]pyridine-7-yl)oxy)phenyl)-5-(trifluoromethyl)-1H-pyrazole-4-carboxamide]: the 50% inhibitory concentration (IC50) on RON was 50 to 500 nM; against cMET, above 5000 nM.
For `CC(C)n1c(=O)[nH]c2nccc(Oc3ccc(NC(=O)c4cnn(-c5cccnc5)c4C(F)(F)F)cc3F)c21` [Example 23, N-(3-fluoro-4-((1-isopropyl-2-oxo-2,3-dihydro-1H-imidazo[4,5-b]pyridine-7-yl)oxy)phenyl)-1-(pyridine-3-yl)-5-(trifluoromethyl)-1H-pyrazole-4-carboxamide], the IC50 is below 50 nM on RON and 500 to 5000 nM against cMET.
On the same counts, the results for `CC(C)n1c(=O)[nH]c2nccc(Oc3ccc(NC(=O)c4cnn(-c5cncnc5)c4C(F)(F)F)cc3F)c21` [Example 4, N-(3-fluoro-4-((1-isopropyl-2-oxo-2,3-dihydro-1H-imidazo[4,5-b]pyridine-7-yl)oxy)phenyl)-1-(pyrimidine-5-yl)-5-(trifluoromethyl)-1H-pyrazole-4-carboxamide] are below 50 nM and above 5000 nM.
On the same counts, the results for `CC(C)n1c(=O)[nH]c2nccc(Oc3ccc(NC(=O)c4cnn(-c5ncccc5Br)c4C(F)(F)F)cc3F)c21` [Example 19, 1-(3-bromopyridine-2-yl)-N-(3-fluoro-4-((1-isopropyl-2-oxo-2,3-dihydro-1H-imidazo[4,5-b]pyridine-7-yl)oxy)phenyl)-5-(trifluoromethyl)-1H-pyrazole-4-carboxamide] are below 50 nM and 500 to 5000 nM.
Consider `CC(C)n1c(=O)[nH]c2nccc(Oc3ccc(NC(=O)c4cnn(-c5cccc(C(F)(F)F)n5)c4C(F)(F)F)cc3F)c21` [Example 22, N-(3-fluoro-4-((1-isopropyl-2-oxo-2,3-dihydro-1H-imidazo[4,5-b]pyridine-7-yl)oxy)phenyl)-5-(trifluoromethyl)-1-(6-(trifluoromethyl)pyridine-2-yl)-1H-pyrazole-4-carboxamide], for which the IC50 on RON is 50 to 500 nM; at cMET it was above 5000 nM.
For `CCc1cccnc1-n1ncc(C(=O)Nc2ccc(Oc3ccnc4[nH]c(=O)n(C(C)C)c34)c(F)c2)c1C(F)(F)F` [Example 29, 1-(3-ethylpyridine-2-yl)-N-(3-fluoro-4-((1-isopropyl-2-oxo-2,3-dihydro-1H-imidazo[4,5-b]pyridine-7-yl)oxy)phenyl)-5-(trifluoromethyl)-1H-pyrazole-4-carboxamide] the same measures were below 50 nM and 500 to 5000 nM.
For `Cc1cnc(-n2ncc(C(=O)Nc3ccc(Oc4ccnc5[nH]c(=O)n(C(C)C)c45)c(F)c3)c2C(F)(F)F)nc1` [Example 36, N-(3-fluoro-4-((1-isopropyl-2-oxo-2,3-dihydro-1H-imidazo[4,5-b]pyridine-7-yl)oxy)phenyl)-1-(5-methylpyrimidine-2-yl)-5-(trifluoromethyl)-1H-pyrazole-4-carboxamide] the same measures were below 50 nM and 500 to 5000 nM.
For `CC(C)n1c(=O)[nH]c2nccc(Oc3ccc(NC(=O)c4cnn(-c5ncccc5C(F)(F)F)c4C(F)(F)F)cc3F)c21` [Example 12, N-(3-fluoro-4-((1-isopropyl-2-oxo-2,3-dihydro-1H-imidazo[4,5-b]pyridine-7-yl)oxy)phenyl)-5-(trifluoromethyl)-1-(3-(trifluoromethyl)pyridine-2-yl)-1H-pyrazole-4-carboxamide] the same measures were below 50 nM and 500 to 5000 nM.
Regarding `CC(C)n1c(=O)[nH]c2nccc(Oc3ccc(NC(=O)c4cnn(-c5ccncn5)c4C(F)(F)F)cc3F)c21` [Example 27, N-(3-fluoro-4-((1-isopropyl-2-oxo-2,3-dihydro-1H-imidazo[4,5-b]pyridine-7-yl)oxy)phenyl)-1-(pyrimidine-4-yl)-5-(trifluoromethyl)-1H-pyrazole-4-carboxamide], the IC50 against RON was below 50 nM; on cMET, 500 to 5000 nM.
In the case of `CC(C)n1c(=O)[nH]c2nccc(Oc3ccc(NC(=O)c4cnn(-c5cc(Br)ccn5)c4C(F)(F)F)cc3F)c21` [Example 16, 1-(4-bromopyridine-2-yl)-N-(3-fluoro-4-((1-isopropyl-2-oxo-2,3-dihydro-1H-imidazo[4,5-b]pyridine-7-yl)oxy)phenyl)-5-(trifluoromethyl)-1H-pyrazole-4-carboxamide], the concentration for half-maximal inhibition (IC50) against RON is below 50 nM; against cMET, above 5000 nM.
For `CC(C)n1c(=O)[nH]c2nccc(Oc3ccc(NC(=O)c4cnn(-c5ccc(C(F)(F)F)cn5)c4C(F)(F)F)cc3F)c21` [Example 13, N-(3-fluoro-4-((1-isopropyl-2-oxo-2,3-dihydro-1H-imidazo[4,5-b]pyridine-7-yl)oxy)phenyl)-5-(trifluoromethyl)-1-(5-(trifluoromethyl)pyridine-2-yl)-1H-pyrazole-4-carboxamide] the same measures were above 5000 nM and above 5000 nM.
